Assay results taken from US9085555B2, “Complement pathway modulators and uses thereof” (priority 2011, dated 2015).

Biological target: Factor D (Homo sapiens (Human), UniProt P00746)
Assay: biochemical
Type: biochemical
Conditions: read-out: IC50

Sequence of Factor D (P00746 26-253): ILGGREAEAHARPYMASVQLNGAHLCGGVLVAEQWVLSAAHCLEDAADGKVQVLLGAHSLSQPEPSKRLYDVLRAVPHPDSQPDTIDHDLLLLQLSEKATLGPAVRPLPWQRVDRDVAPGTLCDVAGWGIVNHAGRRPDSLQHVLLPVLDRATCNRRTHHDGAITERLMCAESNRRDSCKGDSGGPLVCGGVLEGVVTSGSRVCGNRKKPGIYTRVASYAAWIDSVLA

Structure (SMILES) | IC50 [µM]
O=C(NCc1cccc(Cl)c1F)[C@@H]1C[C@@H](F)CN1C(=O)Cn1cc(C(=O)C(F)(F)F)c2ccccc21 [Example 561, (2S,4R)-4-Fluoro-1-{2-[3-(2,2,2-trifluoro-acetyl)-indol-1-yl]-acetyl}-pyrrolidine-2-carboxylic acid 3-chloro-2-fluoro-benzylamide] | 0.014
CC(=O)c1nn(CC(=O)N2C[C@@H]3C[C@@H]3[C@H]2C(=O)NCc2cccc(Cl)c2F)c2cnc(C)cc12 [Example 625, (1S,2S,5R)-3-[2-(3-Acetyl-5-methyl-pyrazolo[3,4-c]pyridin-1-yl)-acetyl]-3-aza-bicyclo [3.1.0]hexane-2-carboxylic acid 3-chloro-2-fluoro-benzylamide] | 0.019
CNC(=O)c1cc(Cl)c(F)c(CNC(=O)[C@@H]2C[C@@H](F)CN2C(=O)Nc2cn(C(N)=O)c3ccccc23)c1 [Example 240, (2S,4R)-4-Fluoro-pyrrolidine-1,2-dicarboxylic acid 1-[(1-carbamoyl-1H-indol-3-yl)-amide] 2-(3-chloro-2-fluoro-5-methylcarbamoyl-benzylamide)] | 0.141
NC(=O)n1cc(NC(=O)N2C[C@](F)(CN3CCOCC3)C[C@H]2C(=O)NCc2cccc(Cl)c2F)c2ccccc21 [Example 209, (2S,4R)-4-Fluoro-morpholin-4-ylmethyl-pyrrolidine-1,2-dicarboxylic acid 1-[(1-carbamoyl-1H-indol-3-yl)-amide] 2-(3-chloro-2-fluoro-benzylamide)] | 1.9
CC(=O)c1nn(CC(=O)N2[C@@H]3C[C@@H]3C[C@H]2C(=O)NCc2cccc(Cl)c2F)c2cnccc12 [Example 627, (1R,3S,5R)-2-[2-(3-Acetyl-pyrazolo[3,4-c]pyridin-1-yl)-acetyl]-2-aza-bicyclo [3.1.0]hexane-3-carboxylic acid 3-chloro-2-fluoro-benzylamide] | 0.016
CN1CCN(C(=O)c2cc(Cl)c(F)c(CNC(=O)[C@@H]3C[C@@H](F)CN3C(=O)Nc3cn(C(N)=O)c4ccccc34)c2)CC1 [Example 322, (2S,4R)-4-Fluoro-pyrrolidine-1,2-dicarboxylic acid 1-[(1-carbamoyl-1H-indol-3-yl)-amide] 2-[3-chloro-2-fluoro-5-(4-methyl-piperazine-1-carbonyl)-benzylamide]] | 0.348
C[C@@]12C[C@@H](C(=O)Nc3cccc(OC(F)(F)F)c3F)N(C(=O)Cn3nc(C(N)=O)c4ccncc43)[C@@H]1C2 [Example 738, 1-{2-[(1R,3S,5R)-3-(2-Fluoro-3-trifluoromethoxy-phenylcarbamoyl)-5-methyl-2-aza-bicyclo[3.1.0]hex-2-yl]-2-oxo-ethyl}-1H-pyrazolo[3,4-c] pyridine-3-carboxylic acid amide] | 0.093
C[C@H](NC(=O)[C@@H]1[C@H](O)CCN1C(=O)Nc1cn(C(N)=O)c2ccccc12)c1cccc(Cl)c1F (single isomer, unassigned) [Example 365] | 0.045
CC(=O)c1cn(CC(=O)N2[C@@H]3C[C@@H]3C[C@H]2C(=O)Nc2cccc(OC(F)(F)F)c2F)c2ncccc12 [Example 562, (1R,3S,5R)-2-[2-(3-Acetyl-pyrrolo[2,3-b]pyridin-1-yl)-acetyl]-2-aza-bicyclo[3.1.0]hexane-3-carboxylic acid (2-fluoro-3-trifluoromethoxy-phenyl)-amide] | 0.804
NC(=O)n1cc(CC(=O)N2[C@@H]3C[C@@H]3C[C@H]2C(=O)N[C@H](CCO)c2cccc(Cl)c2F)c2ccccc21 [Example 457, 3-(2-{(1R,3S,5R)-3-[(R)-1-(3-Chloro-2-fluoro-phenyl)-3-hydroxy-propylcarbamoyl]-2-azabicyclo[3.1.0]hex-2-yl}-2-oxo-ethyl)-indole-1-carboxylic acid amide] | 0.107
NC(=O)n1cc(NC(=O)N2C[C@@H](N)C[C@H]2C(=O)NCC(O)c2ccccc2)c2ccccc21 (stereo partly drawn) [Example 82, (2S,4S)-4-Amino-pyrrolidine-1,2-dicarboxylic acid 1-[(1-carbamoyl-1H-indol-3-yl)-amide] 2-[(2-hydroxy-2-phenyl-ethyl)-amide]] | 24.8
COCCN[C@H]1C[C@@H](C(=O)NCc2cccc(Cl)c2F)N(C(=O)Cn2cc(C(C)=O)c3ccccc32)C1 [Example 609, (2S,4S)-1-[2-(3-Acetyl-indol-1-yl)-acetyl]-4-(2-methoxy-ethylamino)-pyrrolidine-2-carboxylic acid 3-chloro-2-fluoro-benzylamide] | 1.56
NC(=O)n1cc(NC(=O)N2C3CC3C[C@H]2C(=O)NCc2cccc(Cl)c2F)c2ccc(O)cc21 (stereo partly drawn) [Example 392, 1R,3S,5R)-2-Aza-bicyclo[3.1.0]hexane-2,3-dicarboxylic acid 2-[(1-carbamoyl-6-hydroxy-1H-indol-3-yl)-amide]3-(3-chloro-2-fluoro-benzylamide] | 0.007
NC(=O)n1cc(CC(=O)N2C[C@@H]3C[C@@H]3[C@H]2C(=O)N[C@H](CO)c2cccc(Cl)c2F)c2ccccc21 [Example 443, 3-(2-{(1S,2S,5R)-2-[(S)-1-(3-Chloro-2-fluoro-phenyl)-2-hydroxy-ethylcarbamoyl]-3-azabicyclo[3.1.0]hex-3-yl}-2-oxo-ethyl)-indole-1-carboxylic acid amide] | 4.47
NC(=O)n1cc(NC(=O)N2C[C@@](O)(CO)C[C@H]2C(=O)NCc2cccc(Cl)c2F)c2ccccc21 [Example 196, (2S,4R)-4-Hydroxy-4-hydroxymethyl-pyrrolidine-1,2-dicarboxylic acid 1-[(1-carbamoyl-1H-indol-3-yl)-amide] 2-(3-chloro-2-fluoro-benzylamide)] | 0.7
Cn1nc(C(C)(C)C)cc1NC(=O)[C@@H]1CCCN1C(=O)Nc1cn(C(N)=O)c2ccccc12 [Example 279, (S)-Pyrrolidine-1,2-dicarboxylic acid 2-[(5-tert-butyl-2-methyl-2H-pyrazol-3-yl)-amide] 1-[(1-carbamoyl-1H-indol-3-yl)-amide]] | 2.9
NC(=O)n1cc(NC(=O)N2C[C@H](F)C[C@H]2C(=O)NCc2cccnc2)c2ccccc21 [Example 3, (2S,4R)-4-Fluoro-pyrrolidine-1,2-dicarboxylic acid 1-[(1-carbamoyl-1H-indol-3-yl)-amide] 2-[(pyridin-3-ylmethyl)-amide]] | 0.45
NC(=O)c1cc(Br)cc(NC(=O)[C@@H]2C[C@@H](F)CN2C(=O)Nc2cn(C(N)=O)c3ccccc23)c1 [Example 437, (2S,4R)-4-Fluoro-pyrrolidine-1,2-dicarboxylic acid 2-[(3-bromo-5-carbamoyl-phenyl)-amide]1-[(1-carbamoyl-1H-indol-3-yl)-amide]] | 0.107
NC(=O)c1nn(CC(=O)N2[C@@H]3C[C@@H]3C[C@H]2C(=O)Nc2cccc(OC(F)(F)F)c2F)c2nnccc12 [Example 720, 1-(2-((1R,3S,5R)-3-((2-Fluoro-3-(trifluoromethoxy)phenyl)carbamoyl)-2-azabicyclo[3.1.0]hexan-2-yl)-2-oxoethyl)-1H-pyrazolo[3,4-c] pyridazine-3-carboxamide] | 0.14
CC(=O)c1cn(CC(=O)N2[C@H](CNC(=O)Oc3cccc(Cl)c3F)C[C@H]3C[C@H]32)c2ccccc12 [Example 622, {(1R,3S,5R)-2-[2-(3-Acetyl-indol-1-yl)-acetyl]-2-aza-bicyclo[3.1.0]hex-3-ylmethyl}-carbamic acid 3-chloro-2-fluoro-phenyl ester] | 5.59
CC(=O)n1cc(CC(=O)N2CCC[C@H]2C(=O)Nc2cccc(OC(F)(F)F)c2)c2ccccc21 [Example 119, (S)-1-[2-(1-Acetyl-1H-indol-3-yl)-acetyl]-pyrrolidine-2-carboxylic acid (3-trifluoromethoxy-phenyl)-amide] | 4.8
NC(=O)n1cc(NC(=O)N2C[C@H](F)C[C@H]2C(=O)Nc2cc(C(=O)O)cc(Br)c2F)c2ccccc21 [Example 343, 3-Bromo-5-{[(2S,4R)-1-(1-carbamoyl-1H-indol-3-ylcarbamoyl)-4-fluoro-pyrrolidine-2-carbonyl]-amino}-4-fluoro-benzoic acid] | 0.03
NC(=O)n1cc(NC(=O)N2C[C@H](F)C[C@H]2C(=O)NCc2cc(CN3CCOCC3)cc(Cl)c2F)c2ccccc21 [Example 18, (2S,4R)-4-Fluoro-pyrrolidine-1,2-dicarboxylic acid 1-[(1-carbamoyl-1H-indol-3-yl)-amide] 2-(3-chloro-2-fluoro-5-morpholin-4-ylmethyl-benzylamide)] | 0.815
C[C@H]1CCN(C(=O)Nc2cn(C(N)=O)c3ccccc23)[C@@H]1C(=O)Nc1cccc(OC(F)(F)F)c1 [Example 227, (2S,3S)-3-Methyl-pyrrolidine-1,2-dicarboxylic acid 1-[(1-carbamoyl-1H-indol-3-yl)-amide] 2-[(3-trifluoromethoxy-phenyl)-amide]] | 0.8
NC(=O)c1nn(CC(=O)N2[C@@H]3C[C@@H]3C[C@H]2C(=O)Nc2cccc(Br)n2)c2cnccc12 [Example 728, 1-{2-[(1R,3S,5R)-3-(6-bromo-pyridin-2-ylcarbamoyl)-2-aza-bicyclo[3.1.0]hex-2-yl]-2-oxo-ethyl}-1H-pyrazolo[3,4-c] pyridine-3-carboxylic acid amide] | 0.008
NC(=O)n1cc(NC(=O)N2C3CC3C[C@H]2C(=O)NCc2ccc(Cl)s2)c2ccccc21 (stereo partly drawn) [Example 155, (1R,3S,5R)-2-Aza-bicyclo[3.1.0]hexane-2,3-dicarboxylic acid 2-[(1-carbamoyl-1H-indol-3-yl)-amide] 3-[(5-chloro-thiophen-2-ylmethyl)-amide]] | 0.02
NC(=O)n1cc(NC(=O)N2C[C@H](F)C[C@H]2CNS(=O)(=O)c2cccc(Cl)c2F)c2ccccc21 [Example 110, 3-({(2S,4R)-2-[(3-Chloro-2-fluoro-benzenesulfonylamino)-methyl]-4-fluoro-pyrrolidine-1-carbonyl}-amino)-indole-1-carboxylic acid amide] | 0.02
NC(=O)n1cc(NC(=O)N2C3CC3C[C@H]2C(=O)Nc2cccc(Cl)c2F)c2ccccc21 (stereo partly drawn) [Example 176, (1R,3S,5R)-2-Aza-bicyclo[3.1.0]hexane-2,3-dicarboxylic acid 2-[(1-carbamoyl-1H-indol-3-yl)-amide] 3-[(3-chloro-2-fluoro-phenyl)-amide]] | 0.03
